Experimental data: PMC12687421, “Characterisation of an allosteric site in PLCγ enzymes and implications for development of their specific inhibitors” (Biochemical Journal, 2025)

Legend:
PLCγ1^wt = molecular target: T1, PLCγ1^wt (Homo sapiens, UniProt P19174, I813T); assay: Assay 1 (A1) with FGFR1 kinase domain (phosphorylation), with or without nickel lipids; assay type: biochemical
T1 construct: specific activities of PLCγ1^wt and PLCγ2^wt full-length proteins; made in house; host or cells: Escherichia coli T7 Express lysY/Iq
T1 sequence (P19174 1-1291 isoform P19174-2 I813T): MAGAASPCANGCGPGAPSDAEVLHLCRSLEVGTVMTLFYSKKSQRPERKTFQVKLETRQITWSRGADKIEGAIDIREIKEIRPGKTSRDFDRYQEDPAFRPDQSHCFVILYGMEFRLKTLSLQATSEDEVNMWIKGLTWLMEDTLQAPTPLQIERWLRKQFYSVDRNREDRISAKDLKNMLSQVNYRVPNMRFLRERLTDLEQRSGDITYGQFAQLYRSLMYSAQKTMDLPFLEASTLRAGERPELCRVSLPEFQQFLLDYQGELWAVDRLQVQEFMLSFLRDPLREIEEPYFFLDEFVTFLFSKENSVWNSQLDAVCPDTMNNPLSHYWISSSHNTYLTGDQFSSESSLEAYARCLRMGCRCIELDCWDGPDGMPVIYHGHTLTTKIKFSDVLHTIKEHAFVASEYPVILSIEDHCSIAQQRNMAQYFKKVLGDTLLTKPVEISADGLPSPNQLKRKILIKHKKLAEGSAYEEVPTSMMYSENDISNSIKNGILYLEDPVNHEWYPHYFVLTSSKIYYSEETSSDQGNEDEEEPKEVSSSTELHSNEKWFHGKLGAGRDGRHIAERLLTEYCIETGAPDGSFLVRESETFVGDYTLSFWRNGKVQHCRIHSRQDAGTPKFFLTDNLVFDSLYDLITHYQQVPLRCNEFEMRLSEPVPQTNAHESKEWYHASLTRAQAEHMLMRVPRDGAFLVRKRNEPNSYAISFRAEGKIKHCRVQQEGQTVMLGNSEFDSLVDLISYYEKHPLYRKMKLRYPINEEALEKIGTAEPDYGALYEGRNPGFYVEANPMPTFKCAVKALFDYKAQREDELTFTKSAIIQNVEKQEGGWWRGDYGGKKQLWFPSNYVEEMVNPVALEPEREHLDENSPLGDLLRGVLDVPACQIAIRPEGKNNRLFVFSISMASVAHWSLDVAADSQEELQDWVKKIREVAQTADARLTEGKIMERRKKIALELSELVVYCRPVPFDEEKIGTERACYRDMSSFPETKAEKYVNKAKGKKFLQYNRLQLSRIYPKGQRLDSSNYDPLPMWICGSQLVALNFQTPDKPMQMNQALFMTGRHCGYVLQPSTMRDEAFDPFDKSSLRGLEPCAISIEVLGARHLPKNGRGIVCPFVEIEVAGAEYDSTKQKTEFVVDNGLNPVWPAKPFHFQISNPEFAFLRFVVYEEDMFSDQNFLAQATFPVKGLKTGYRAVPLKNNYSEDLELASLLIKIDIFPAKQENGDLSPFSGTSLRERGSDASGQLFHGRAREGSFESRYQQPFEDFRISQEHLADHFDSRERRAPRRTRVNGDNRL
Procedure: A CLARIOstar plate reader (BMG Labtech) was used to measure the production of the fluorescent product. The excitation and emission wavelengths were 485–15 and 520–20, respectively. Each experiment was performed in at least triplicate; in many cases, nine-fold replicates were generated. The enzyme progress curves were plotted for each concentration of nucleotide using Graphpad Prism software. The initial linear rate of product generation was calculated and converted to a % inhibition when compared with the rate of PLC activity in the absence of nucleotide. These % inhibition values were plotted against the logarithm of the nucleotide concentration in Graphpad Prism and the data fitted with the function (Inhibitor) vs. response–variable slope (four parameters). The resultant fit yielded the IC50 values for the nucleotide inhibition.
The standard XY-69 assay outlined above was followed with the following changes. The PLC activity buffer also contained 10 mM MgCl2. The final concentration of PLCγ1^WT in the assay was 12.5 nM and also contained a 10-fold excess of the FGFR1 kinase domain. The ATP dilution series was first added to the assay plate, followed by the enzyme mix. […] Subsequently, the standard XY-69 liposomes (with or without nickel lipids) were added, and the experiment monitored in the Clariostar as outlined above.

PLCγ1^D1165H = assay: PLC activity assay 1 (A1), PLCγ1 D1165H variant; assay type: biochemical, human
Procedure: The effect of nucleotide inhibition on PLC activity was measured using either a membrane-based assay with the fluorescent substrate (XY-69) incorporated into liposomes or using a small soluble substrate, Aldol 518 myo-inositol-1-phosphate (Aldol). Both methods utilised the same PLC assay buffer [20 mM Hepes-KOH, 70 mM KCl, 3 mM EGTA, 2.97 mM CaCl2, 2 mM TCEP and fatty acid-free bovine serum albumin (FAF-BSA; 50 μg/ml) (pH 7.5)]. Both assays were performed in low volume black 384-well plates (Greiner Bio-One), were composed of a final assay volume of 20 μl and were monitored in a Clariostar plate reader (BMG Labtech). […] The excitation and emission wavelengths were 588–15 and 642–20, respectively.
A CLARIOstar plate reader (BMG Labtech) was used to measure the production of the fluorescent product. The excitation and emission wavelengths were 485–15 and 520–20, respectively. Each experiment was performed in at least triplicate; in many cases, nine-fold replicates were generated. The enzyme progress curves were plotted for each concentration of nucleotide using Graphpad Prism software. The initial linear rate of product generation was calculated and converted to a % inhibition when compared with the rate of PLC activity in the absence of nucleotide. […]

| SMILES | inhibition with membrane proximity and phospho-PLCγ1 combined (PLCγ1^wt; 10% Ni-lipids and FGFR1-KD, range of ATP concentrations including physiological levels) | PLC activity with increasing ATP in presence of FGFR1 kinase (PLCγ1^wt; FGFR1 kinase domain, no Ni-lipids) | IC50 relative to PLCγ1^wt (fold higher) (PLCγ1^D1165H) |
| --- | --- | --- | --- |
| Nc1ncnc2c1ncn2[C@@H]1O[C@H](COP(=O)(O)OP(=O)(O)OP(=O)(O)O)[C@@H](O)[C@H]1O [ATP] | clear reduction in nucleotide inhibition | enhanced PLC activity compared with the control | – |
| Nc1ncnc2c1ncn2[C@@H]1O[C@H](COP(=O)(O)OP(=O)(O)O)[C@@H](O)[C@H]1O [ADP] | – | – | 5–7 fold |
